# Measured values from ChEMBL document CHEMBL3045199, “Synthesis of some (E)-6-[2-(furan-2-yl)ethenyl]-1,2,4-triazin-5-ones and their biological evaluation as antitumor agents” (2013).
# Assays:
# Assay type in all cases: functional
# [1] = Cytotoxicity against Homo sapiens (human) prostate cancer cells after 48 hr by SRB assay; conditions: Cancer cell lines
# [2] = Cytotoxicity against Homo sapiens (human) renal cancer cells after 48 hr by SRB assay; conditions: Cancer cell lines
# [3] = Cytotoxicity against Homo sapiens (human) melanoma cells after 48 hr by SRB assay; conditions: Melanoma cell
# [4] = Cytotoxicity against Homo sapiens (human) CNS cancer cells after 48 hr by SRB assay; conditions: Cancer cell lines
# [5] = Cytotoxicity against Homo sapiens (human) colon cancer cells after 48 hr by SRB assay; conditions: Cancer cell lines
# [6] = Cytotoxicity against Homo sapiens (human) non-small cell lung cancer cells after 48 hr by SRB assay; conditions: Cancer cell lines
# MDA-MB-468 = assay: Cytotoxicity against Homo sapiens (human) MDA-MB-468 cells after 48 hr by SRB assay; conditions: MDA-MB-468, 48 h
# [7] = Cytotoxicity against Homo sapiens (human) NCI-ADR-RES cells after 48 hr by SRB assay
# SF-539 = assay: Cytotoxicity against Homo sapiens (human) SF539 cells assessed as growth inhibition at 10 uM after 24 hr; conditions: SF-539, 24 h, read-out: GI
# SF-295 = assay: Cytotoxicity against Homo sapiens (human) SF295 cells assessed as growth inhibition at 10 uM after 24 hr; conditions: SF-295, 24 h, read-out: GI
# SW-620 = assay: Cytotoxicity against Homo sapiens (human) SW620 cells assessed as growth inhibition at 10 uM after 24 hr; conditions: SW-620, 24 h, read-out: GI
# HCT-15 = assay: Cytotoxicity against Homo sapiens (human) HCT15 cells assessed as growth inhibition at 10 uM after 24 hr; conditions: HCT-15, 24 h, read-out: GI
# HCT-116 = assay: Cytotoxicity against Homo sapiens (human) HCT116 cells assessed as growth inhibition at 10 uM after 24 hr; conditions: HCT-116, 24 h, read-out: GI
# NCI-H460 = assay: Cytotoxicity against Homo sapiens (human) NCI-H460 cells assessed as growth inhibition at 10 uM after 24 hr; conditions: NCI-H460, 24 h, read-out: GI
# NCI-H322M = assay: Cytotoxicity against Homo sapiens (human) NCI-H322M cells assessed as growth inhibition at 10 uM after 24 hr; conditions: read-out: GI
# NCI-H23 = assay: Cytotoxicity against Homo sapiens (human) NCI-H23 cells assessed as growth inhibition at 10 uM after 24 hr; conditions: NCI-H23, 24 h, read-out: GI
# HOP-92 = assay: Cytotoxicity against Homo sapiens (human) HOP92 cells assessed as growth inhibition at 10 uM after 24 hr; conditions: HOP-92, 24 h, read-out: GI
# A549 = assay: Cytotoxicity against Homo sapiens (human) A549/ATCC cells assessed as growth inhibition at 10 uM after 24 hr; conditions: A549, 24 h, read-out: GI
# SR = assay: Cytotoxicity against Homo sapiens (human) SR cells assessed as growth inhibition at 10 uM after 24 hr; conditions: read-out: GI
# [8] = Cytotoxicity against Homo sapiens (human) breast cancer cells after 48 hr by SRB assay; conditions: Cancer cell lines
# RXF 393 = assay: Cytotoxicity against Homo sapiens (human) RXF393 cells assessed as growth inhibition at 10 uM after 24 hr; conditions: RXF 393, 24 h, read-out: GI
# A498 = assay: Cytotoxicity against Homo sapiens (human) A498 cells assessed as growth inhibition at 10 uM after 24 hr; conditions: A498, 24 h, read-out: GI
# 786-0 = assay: Cytotoxicity against Homo sapiens (human) 786-0 cells assessed as growth inhibition at 10 uM after 24 hr; conditions: 786-0, 24 h, read-out: GI
# OVCAR-8 = assay: Cytotoxicity against Homo sapiens (human) OVCAR8 cells assessed as growth inhibition at 10 uM after 24 hr; conditions: OVCAR-8, 24 h, read-out: GI
# OVCAR-4 = assay: Cytotoxicity against Homo sapiens (human) OVCAR4 cells assessed as growth inhibition at 10 uM after 24 hr; conditions: OVCAR-4, 24 h, read-out: GI
# UACC-62 = assay: Cytotoxicity against Homo sapiens (human) UACC62 cells assessed as growth inhibition at 10 uM after 24 hr; conditions: UACC-62, 24 h, read-out: GI
# SK-MEL-5 = assay: Cytotoxicity against Homo sapiens (human) SK-MEL-5 cells assessed as growth inhibition at 10 uM after 24 hr; conditions: SK-MEL-5, 24 h, read-out: GI
# M14 = assay: Cytotoxicity against Homo sapiens (human) M14 cells assessed as growth inhibition at 10 uM after 24 hr; conditions: M14, 24 h, read-out: GI
# U-251 = assay: Cytotoxicity against Homo sapiens (human) U251 cells assessed as growth inhibition at 10 uM after 24 hr; conditions: U-251, 24 h, read-out: GI
# LOX IMVI = assay: Cytotoxicity against Homo sapiens (human) LOXIMVI cells assessed as growth inhibition at 10 uM after 24 hr; conditions: read-out: GI
# SNB-75 = assay: Cytotoxicity against Homo sapiens (human) SNB75 cells assessed as growth inhibition at 10 uM after 24 hr; conditions: SNB-75, 24 h, read-out: GI
# MCF7 = assay: Cytotoxicity against Homo sapiens (human) MCF7 cells assessed as growth inhibition at 10 uM after 24 hr; conditions: MCF7, 24 h, read-out: GI
# PC-3 = assay: Cytotoxicity against Homo sapiens (human) PC3 cells assessed as growth inhibition at 10 uM after 24 hr; conditions: PC-3, 24 h, read-out: GI
# DU-145 = assay: Cytotoxicity against Homo sapiens (human) DU145 cells assessed as growth inhibition at 10 uM after 24 hr; conditions: DU-145, 24 h, read-out: GI
# UO-31 = assay: Cytotoxicity against Homo sapiens (human) UO31 cells assessed as growth inhibition at 10 uM after 24 hr; conditions: UO-31, 24 h, read-out: GI
# SN12C = assay: Cytotoxicity against Homo sapiens (human) SN12C cells assessed as growth inhibition at 10 uM after 24 hr; conditions: read-out: GI
# MDA-MB-435 = assay: Cytotoxicity against Homo sapiens (human) MDA-MB-435 cells after 48 hr by SRB assay; conditions: MDA-MB-435, 48 h
# [9] = read-out: LC50 (the source's name)
structure (smiles),measurement,setting,value
Nc1cc(-c2ccc(Cl)cc2)nn1-c1nc(=O)c(/C=C/c2ccco2)n[nH]1,GI50,[1],4.3 µM
same,TGI,[1],40.1 µM
same,CC50,[1]; [9],50 µM
same,GI50,[2],5.85 µM
same,TGI,[2],37.4 µM
same,CC50,[2]; [9],> 100 µM
same,GI50,[3],6.7 µM
same,TGI,[3],59.3 µM
same,CC50,[3]; [9],> 100 µM
same,GI50,[4],4.99 µM
same,TGI,[4],44.5 µM
same,CC50,[4]; [9],> 100 µM
same,GI50,[5],4.27 µM
same,TGI,[5],22 µM
same,CC50,[5]; [9],> 100 µM
same,GI50,[6],4.47 µM
same,TGI,[6],41.1 µM
same,CC50,[6]; [9],> 100 µM
same,GI50,MDA-MB-468,3.08 µM
same,TGI,MDA-MB-468,22.2 µM
same,CC50,MDA-MB-468; [9],> 100 µM
same,GI50,[7],1230 nM
same,TGI,[7],8.11 µM
same,CC50,[7]; [9],96.4 µM
same,inhibition of growth at 10 µM,SF-539,44.6%
same,inhibition of growth at 10 µM,SF-295,90.1%
same,inhibition of growth at 10 µM,SW-620,50.8%
same,inhibition of growth at 10 µM,HCT-15,61.9%
same,inhibition of growth at 10 µM,HCT-116,59%
same,inhibition of growth at 10 µM,NCI-H460,79.6%
same,inhibition of growth at 10 µM,NCI-H322M,75.6%
same,inhibition of growth at 10 µM,NCI-H23,41.2%
same,inhibition of growth at 10 µM,HOP-92,39.7%
same,inhibition of growth at 10 µM,A549,62.7%
same,inhibition of growth at 10 µM,SR,61.9%
same,GI50,[8],6.39 µM
same,TGI,[8],48.1 µM
same,CC50,[8]; [9],> 100 µM
same,inhibition of growth at 10 µM,RXF 393,32.2%
same,inhibition of growth at 10 µM,A498,66.2%
same,inhibition of growth at 10 µM,786-0,53.1%
same,inhibition of growth at 10 µM,OVCAR-8,75.2%
same,inhibition of growth at 10 µM,OVCAR-4,70.9%
same,inhibition of growth at 10 µM,UACC-62,47.5%
same,inhibition of growth at 10 µM,SK-MEL-5,54%
same,inhibition of growth at 10 µM,M14,42.6%
same,inhibition of growth at 10 µM,U-251,49.4%
same,inhibition of growth at 10 µM,LOX IMVI,50.1%
same,inhibition of growth at 10 µM,SNB-75,32.6%
same,inhibition of growth at 10 µM,MCF7,54.1%
same,inhibition of growth at 10 µM,PC-3,47.4%
same,inhibition of growth at 10 µM,DU-145,36.7%
same,inhibition of growth at 10 µM,UO-31,96.1%
same,inhibition of growth at 10 µM,SN12C,31.8%
same,GI50,MDA-MB-435,5.22 µM
same,TGI,MDA-MB-435,> 100 µM
same,CC50,MDA-MB-435; [9],> 100 µM
